Assay results from PubChem BioAssay (NCI).
Where “and” joins values, the source holds several entries; their conditions need not be identical. Equal entries are not always repeated.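 1) Cells in 96-well plates. 2) Compound, 48 h, 5 concentrations. 3) Linear interpolation between surrounding doses. 4) Unreached endpoint = highest concentration. At the GI50, growth is halved. At the TGI there is no net growth.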

What was measured:
Experiment in all cases: NCI anticancer screen, dose series, 48 h
BT-549 breast = tested on: BT-549 breast
OVCAR-3 ovarian = tested on: OVCAR-3 ovarian
SF-268 CNS = tested on: SF-268 CNS
MDA-MB-435 = tested on: MDA-MB-435
HCC-2998 colon = tested on: HCC-2998 colon
SK-OV-3 ovarian = tested on: SK-OV-3 ovarian
SK-MEL-5 melanoma = tested on: SK-MEL-5 melanoma
SW-620 colon = tested on: SW-620 colon
IGROV1 ovarian = tested on: IGROV1 ovarian
TK-10 renal = tested on: TK-10 renal

SMILES	GI50 (BT-549 breast) [µM]	TGI (BT-549 breast)	GI50 (OVCAR-3 ovarian) [µM]	TGI (OVCAR-3 ovarian)	GI50 (SF-268 CNS) [µM]	TGI (SF-268 CNS) [µM]	GI50 (MDA-MB-435) [µM]	TGI (MDA-MB-435) [µM]	GI50 (HCC-2998 colon) [µM]	TGI (HCC-2998 colon) [µM]	GI50 (SK-OV-3 ovarian) [µM]	TGI (SK-OV-3 ovarian)	GI50 (SK-MEL-5 melanoma) [µM]	TGI (SK-MEL-5 melanoma)	GI50 (SW-620 colon) [µM]	TGI (SW-620 colon) [µM]	GI50 (IGROV1 ovarian) [µM]	TGI (IGROV1 ovarian)	GI50 (TK-10 renal) [µM]	TGI (TK-10 renal)
CC(C)C[C@H](NC(=O)[C@@H](O)[C@H](N)Cc1ccc([N+](=O)[O-])cc1)C(=O)O	> 25	> 25 µM	0.0025	> 25 µM	> 25	> 25	> 25	> 25	> 25	> 25	> 25	> 25 µM	> 25	> 25 µM	> 25	> 25	> 25	> 25 µM	> 25	> 25 µM
COc1cc(C2CC(c3ccc(N(C)C)cc3)=NN2C(C)=O)cc(OC)c1OC (stereo not given)	2.53	> 100 µM	0.352	1.84 µM	3.69	> 100	0.231	1.18	2.61	27.1	5.46	> 100 µM	0.804	17.6 µM	0.928	> 100	2.65	> 100 µM	14.3	> 100 µM
C=C1CCC2C3(C)COC(c4ccccc4Br)OC3CCC2(C)C1C/C=C1/C(=O)OCC1OC(C)=O (stereo not given)	1.7	3.71 µM	0.932	2.47 µM	1.65	3.01	1.48	3.5	1.73	3.31	2.85	6.78 µM	1.6	2.98 µM	0.402	1.3	1.15	2.48 µM	1.91	3.67 µM
CN(C(=O)c1ccncc1)c1ccccc1		> 100 µM		> 100 µM		> 100		> 100		> 100		> 100 µM		> 100 µM		> 100		> 100 µM		> 100 µM
Cc1cn2c(/C=N/Nc3ccccn3)c(-c3ccc(Cl)c([N+](=O)[O-])c3)nc2s1	21.1	> 50 µM	11	27.3 µM	11.6	31.7	30.3	> 50	> 50	> 50	9.95	22.5 µM	43.9	> 50 µM	44.1	> 50	5.62	21.8 µM	15.3	47.3 µM
COC(=O)C(F)C(Br)C(=O)OC (stereo not given)		31 µM		4.33 µM		24.4		27.3		21		34.6 µM		34 µM		4.56		> 20.5 µM		5.37 µM
Nc1nc(N)c(N=O)c(OCC2CCCCC2)n1	4.8	61 µM and > 84.9 µM	7.37	64.7 µM and 61.5 µM	5.82	> 95.4	12.8	> 85.3	22.5	> 100	27.9	> 80.9 µM and 74.3 µM	13.7	60 µM and 42 µM	20.4	> 100	3.69	24.1 µM and 24.5 µM	15.9	57 µM and 34.5 µM
